Measurements as given in patent US20100152270A1, “PESTICIDE COMPOSITION COMPRISING A STRIGOLACTONE DERIVATIVE AND A FUNGICIDE COMPOUND” (priority 2007, published 2010).
Where two headings read alike, the source gives them in different places.

Key:
Assay type in all cases: cell-based
[1] = test system: Botrytis cinerea; assay: Botrytis cinerea microtest in liquid medium (PDB), microtitre plates, optical density; settings: 5 days incubation, 100% = no fungal growth
[2] = test system: Gibberella zeae; settings: 3 days incubation, 100% = no fungal growth
[3] = test system: Rhizoctonia solani; assay: Rhizoctonia solani microtest in liquid medium (PDB), microtitre plates, optical density; settings: 5 days incubation, 100% = no fungal growth
[4] = test system: Pyricularia oryzae; settings: 3 days incubation, 100% = no fungal growth

Structure (SMILES): Cc1nn(C)c(F)c1C(=O)Nc1ccccc1C(C)CC(C)C (stereo not shown) [N-[2-(1,3-Dimethylbutyl)phenyl]-5-fluor-1,3-dimethyl-1H-pyrazol-4-carboxamid]
- Efficacy in % ([1]; 0.001 ppm): 17%

Structure (SMILES): CC(C)(C)C(O)(CCc1ccc(Cl)cc1)Cn1cncn1 (stereo not shown) [Tebuconazole]
- Efficacy in % ([2]; 0.001 ppm): 23%

Structure (SMILES): CC1=CC(O/C=C2/C(=O)OC3c4ccccc4CC23)OC1=O (stereo not shown) [Compound A]
- Efficacy in % ([1]; 0.0000001 ppm): 8%
- Efficacy in % ([1]; 0.00003 ppm): 1%
- Efficacy in % ([3]; 0.0000001 ppm): 26%
- Efficacy in % ([2]; 0.0000001 ppm): 35%
- Efficacy in % ([4]; 0.00003 ppm): 4%

Structure (SMILES): OC(Cc1ccccc1Cl)(Cn1nc[nH]c1=S)C1(Cl)CC1 (stereo not shown) [Prothioconazole]
- Efficacy in % ([1]; 0.3 ppm): 40%

Structure (SMILES): CON=C(C(=O)OC)c1ccccc1CON=C(C)c1cccc(C(F)(F)F)c1 [Trifloxystrobin]
- Efficacy in % ([4]; 0.3 ppm): 58%

Structure (SMILES): COCC(=O)N(c1c(C)cccc1C)C(C)C(=O)OC (stereo not shown) [Metalaxyl]
- Efficacy in % ([3]; 0.001 ppm): 27%
